Tested on: standard bacteria strains
Test: Antibacterial screening against standard strains (overall statements)
Assay type: cell-based
Conditions: concentrations 16 to 512 µg/mL
Method: All of the obtained derivatives (1–9) were tested in vitro against a number of bacteria, including representative standard Gram-positive and Gram-negative rods. Compounds were screened for their minimal inhibitory concentrations (MICs).
The antimicrobial studies for all of the obtained compounds were conducted using reference strains of bacteria derived from international microbe collections—the American Type Culture Collection (ATCC) and the National Collection of Type Culture (NCTC). Among the reference strains there were two Gram-negative rods (P. aeruginosa ATCC 15442 and E. coli ATCC 25922) and six Gram-positive isolates (Staphylococcus aureus: NCTC 4163, ATCC 25923, ATCC 6538, ATCC 29213, S. epidermidis ATCC 12228, ATCC 35984). These strains are widely used to determine the activity of antimicrobials and check the drug susceptibility of bacteria, and their use enables comparison of assay results obtained in independent laboratories all over the world.
The antimicrobial activity of compounds was expressed by minimum inhibitory concentration values (MICs), according to CLCI reference procedures with some modifications. MIC was tested by the two-fold serial microdilution method (in 96-well microtiter plates) on MH II liquid medium. The final inoculum of all of the studied bacteria was 10^6 CFU/mL (colony forming unit per mL). […]

## COc1cc(OC)c2c(CBr)c(C(C)=O)oc2c1 [Compound 6, 1-[3-(Bromomethyl)-4,6-Dimethoxy-1-Benzofuran-2-yl]Ethanone]
  Antimicrobial activity against the studied strains: did not show antimicrobial properties against the studied strains
